{C6NH2} = aminohexyl phosphate linker
Experiments:
[1] = system: unmodified 20-mer ODN complement with the base sequence 5'-GTGACGAACATGGAGAACAT; test: Thermal denaturation studies (Tm of duplex with complementary ODN); assay type: binding; settings: equimolar ODN and 20-mer complement, 2 μM solutions in pH 7.2 PBS, A260, 15-85° C. at 0.5° C./min
Experimental: The ODN-peptide conjugates prepared from ODN1 were further characterized by thermal denaturation studies as described in EXAMPLE III. The dissociation of duplexes formed from equimolar concentrations of the ODN1-peptide conjugates and an unmodified 20-mer ODN target were examined. The changes in absorbance at 260 nm were measured as a function of temperature and the melting temperatures (Tm) were determined. […] Therefore, amino acid residue(s) from proteolysis of the linker are, generally speaking, expected to have little effect on the biological activity of the released ODN.
Thermal Denaturation Studies (ODN1-Peptides). Thermal dissociation curves were obtained by following changes in A260 of aqueous solutions containing equimolar amounts of the particular ODN1-peptide described above and an unmodified 20-mer ODN complement with the base sequence 5'-[…] Sequence ID No.: 14. The 5'-hexylamine modified 16-mer (ODN1) was used as a control in each run. ODNs were prepared as 2 μM solutions in pH 7.2 PBS. A Gilford System 2600 UV-VIS spectrophotometer equipped with a Gilford 2527 Thermoprogrammer was used. […] Absorbance vs. time and the first derivative data were recorded automatically. […] The Tm was determined using the derivative maxima: ODN1, Tm =62.8° C.; ODN1-PEP1, Tm =61.8° C.; ODN1-PEP2, Tm =59.0° C.; […]° C.

trypsin = test: Protease degradation studies (trypsin digestion, polyacrylamide gel electrophoresis); assay type: biochemical; settings: 2 μg ODN-peptide, Tris pH 9.0, EDTA, digesting 60 min, 20% denaturing polyacrylamide gel
Source text: The model ODN-peptide conjugates were further characterized by their susceptibility to proteolysis with trypsin. (For detail see EXAMPLE IV). As is known in the art, trypsin catalyzes the hydrolysis at the carboxyl side of lysine or arginine residues in the peptides. It was found in accordance with the present invention that trypsin had no effect on the ODN as shown by polyacrylamide gel electrophoresis in FIG. 6.
Protease Degradation Studies (ODN1-Peptides). The three ODN1-peptide conjugates (described in Table I) were characterized by treatment with trypsin. Solutions of 2 μg of the ODN-peptide in 7 μL of water were combined with 1 μL of 10x trypsin disruption solution, 1 μL of 100 mM Tris buffer (pH 9.0), and 1 μL of 100 mM EDTA. After digesting 60 min, the samples were loaded on 20% denaturing polyacrylamide gel. Electrophoresis indicated complete proteolysis of starting ODN1-peptide (see FIG. 6, lanes 1-6). Trypsin had no effect on an unmodified ODN1 control (lanes 8 and 9).

H2 N--(CH2)6 --O--PO2^- -5'O--CTCCATCTTCGTCACA (5' {C6NH2}, sugars by position and backbone not given here) [ODN1, 5'-hexylamine modified 16-mer ODN complementary to initiation codon region of Hepatitis B surface antigen mRNA]
Tm (melting temperature, derivative maxima) [1]: 62.8 °C
proteolysis by trypsin (electrophoresis) (trypsin): no effect
